Data: PMC11811597, “Phenomics‐Based Discovery of Novel Orthosteric Choline Kinase Inhibitors” (Angewandte Chemie (International Ed. in English), 2025)

What was measured:
EHMT1 = target: T1, EHMT1 (Homo sapiens, UniProt Q9H9B1); test: Competitive affinity-based chemoproteomics (UNC0965 matrix), PBMC cell extract; format: binding; conditions: 20 µM competitor; for FC vs DMSO (log2 competition), EHMT1: n=2
T1 construct: endogenous in cells; host or cells: PBMC from healthy blood donors, cell extract
T1 sequence (Q9H9B1 1-1298): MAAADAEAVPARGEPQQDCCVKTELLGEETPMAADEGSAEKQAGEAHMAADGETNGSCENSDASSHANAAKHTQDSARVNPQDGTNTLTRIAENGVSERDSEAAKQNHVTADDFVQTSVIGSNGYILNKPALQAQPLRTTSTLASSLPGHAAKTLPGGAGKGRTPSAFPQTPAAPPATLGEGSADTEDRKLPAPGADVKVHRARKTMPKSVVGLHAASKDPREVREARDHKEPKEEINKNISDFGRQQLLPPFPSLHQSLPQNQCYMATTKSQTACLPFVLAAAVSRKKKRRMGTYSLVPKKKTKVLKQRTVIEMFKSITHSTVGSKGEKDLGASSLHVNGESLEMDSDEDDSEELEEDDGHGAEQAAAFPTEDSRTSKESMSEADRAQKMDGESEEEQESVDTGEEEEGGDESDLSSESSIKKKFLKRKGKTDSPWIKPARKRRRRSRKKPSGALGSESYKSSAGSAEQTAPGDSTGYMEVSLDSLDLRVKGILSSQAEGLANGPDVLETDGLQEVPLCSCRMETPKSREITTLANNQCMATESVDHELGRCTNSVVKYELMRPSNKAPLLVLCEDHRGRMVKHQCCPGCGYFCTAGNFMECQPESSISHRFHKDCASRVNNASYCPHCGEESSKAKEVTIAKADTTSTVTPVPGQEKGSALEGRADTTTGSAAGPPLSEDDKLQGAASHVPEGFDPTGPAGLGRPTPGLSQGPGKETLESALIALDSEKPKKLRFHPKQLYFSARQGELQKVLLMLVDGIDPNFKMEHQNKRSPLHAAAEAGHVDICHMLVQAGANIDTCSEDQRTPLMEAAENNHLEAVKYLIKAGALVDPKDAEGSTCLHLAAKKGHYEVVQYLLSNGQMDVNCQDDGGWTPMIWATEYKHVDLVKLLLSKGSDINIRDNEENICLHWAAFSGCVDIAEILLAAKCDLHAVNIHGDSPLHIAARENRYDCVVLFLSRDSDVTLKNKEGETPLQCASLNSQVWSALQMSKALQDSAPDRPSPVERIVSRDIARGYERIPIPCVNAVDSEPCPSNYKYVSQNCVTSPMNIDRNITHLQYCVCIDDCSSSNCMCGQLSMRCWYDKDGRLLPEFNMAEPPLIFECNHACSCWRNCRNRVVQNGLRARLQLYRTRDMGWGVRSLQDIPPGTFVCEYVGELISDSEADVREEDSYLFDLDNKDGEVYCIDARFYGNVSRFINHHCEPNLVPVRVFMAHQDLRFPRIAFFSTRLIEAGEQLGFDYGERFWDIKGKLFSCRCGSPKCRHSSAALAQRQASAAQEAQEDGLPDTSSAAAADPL
Protocol: (§1) described.[2] Lysates were precleared with bead slurry (100 μL) for 30 min at 4 °C and then treated with UNC0638 or UNC0737 (20 μM) or DMSO control for 30 min at 4 °C followed by incubation with affinity matrix for 2 h at 4 °C. Affinity matrices were washed with buffer A (5 mL) and proteins eluted with 100 μL of 2x Laemmli sample buffer, 100 mM DTT, in PBS and heating for 10 min at 90 °C.
(§2) Eluents (70 µL) were diluted in 0.1 M Tris (pH 7.8) to 200 µL, reduced with 5 mM DTT for 30 min at RT, and alkylated with 20 mM iodoacetamide for 30 min at RT in the dark. Proteins were precipitated by sequential addition of MeOH (600 µL), CHCl3 (150 µL) and H2O (450 µL), pelleted (17,000 × g, 5 min), washed with further MeOH (2 × 600 µL), and re-pelleted. Air dried pellets were resuspended in 50 μL 6 M urea (pH 7.8) by vortexing and then diluted with 250 μL H2O before adding 1 µg trypsin for overnight incubation at 37 °C. The digests were acidified with FA (1% v/v final concentration), desalted using SOLA HRP SPE Cartridges (Thermo Fisher), eluted with 69% v/v MeCN, 0.1% v/v FA in H2O (600 μL) and dried in vacuo. Dried peptides were stored at -20 °C before resuspension in 2% v/v MeCN, 0.1% v/v FA in H2O (20 μL) for LC-MS/MS analysis.
(§3) LC-MS/MS Data Acquisition
(§4) Digested samples were analysed by nano-UPLC–MS/MS using a Dionex Ultimate 3000 nano UPLC fitted with an EASY spray column (75 μm × 500 mm, 2 μm particle size, Thermo Scientific), coupled to an Orbitrap Q Exactive instrument. A 60 min gradient of 0.1% (v/v) formic acid in 5 % (v/v) DMSO to 0.1% (v/v) formic acid with 35% (v/v) acetonitrile in 5 % (v/v) DMSO at a flow rate of 250 nL min−1 was used. The instrument was operated in a data-dependant mode, with survey scans acquired at a resolution of 70,000 at 200 m/z and the 15 most abundant precursors selected for HCD fragmentation with an AGC target of […] ions.
(§5) Raw data was processed using MaxQuant[3] version 2.0.1.0 and the reference complete human proteome FASTA file (UniProt, downloaded 05.08.21). Label Free Quantification (LFQ) and Match Between Runs were selected; Cysteine carbamidomethylation was selected as a fixed modification, and methionine oxidation and asparagine deamidation as variable modifications. Default settings for identification and quantification were used. Specifically, a minimum peptide length of 7, a maximum of 2 missed cleavage sites, and a maximum of 5 labelled amino acids per peptide were allowed.
(§6) Through selection of the ‘trypsin/P’ general setting, peptide bond cleavage at arginine or lysine (followed by any amino acid) was considered during in silico digest of the reference proteome. The allowed precursor and fragment ion mass tolerances were 4.5 ppm and 20 ppm, respectively. Peptides and proteins were identified utilizing a 0.01 false discovery rate, with “unique and razor peptides” […]
(§7) mode selected for both identification and quantification of proteins (razor peptides are uniquely assigned to protein groups and not to individual proteins).

CPSF6 = target: T2, CPSF6 (Homo sapiens, UniProt Q16630); test: as above; format: binding; conditions: 20 µM competitor, n=2
T2 construct: endogenous in cells; host or cells: PBMC from healthy blood donors, cell extract
Protocol: as §1, §2, §3, §4, §5, §6, §7

T2 sequence (Q16630 whole entry): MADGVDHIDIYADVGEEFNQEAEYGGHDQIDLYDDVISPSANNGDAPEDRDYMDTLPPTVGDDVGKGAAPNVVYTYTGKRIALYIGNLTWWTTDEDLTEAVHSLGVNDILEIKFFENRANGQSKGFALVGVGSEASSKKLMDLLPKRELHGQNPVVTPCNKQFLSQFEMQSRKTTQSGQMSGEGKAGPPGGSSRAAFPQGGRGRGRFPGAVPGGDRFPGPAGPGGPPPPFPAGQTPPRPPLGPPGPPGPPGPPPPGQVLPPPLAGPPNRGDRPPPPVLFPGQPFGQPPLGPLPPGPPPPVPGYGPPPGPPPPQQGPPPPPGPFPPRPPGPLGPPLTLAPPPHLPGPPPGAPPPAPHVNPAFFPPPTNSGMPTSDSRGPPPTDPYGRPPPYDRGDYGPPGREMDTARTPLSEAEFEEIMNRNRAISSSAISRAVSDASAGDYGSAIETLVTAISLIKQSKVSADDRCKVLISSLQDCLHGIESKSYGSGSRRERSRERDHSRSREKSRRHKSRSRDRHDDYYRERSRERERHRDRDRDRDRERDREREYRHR

Compound | EHMT1 (GLP) binding to the matrix (EHMT1) | FC vs DMSO (log2 competition), EHMT1 (EHMT1) | FC vs DMSO (log2 competition), CPSF6 (CPSF6)
COc1cc2c(NC3CCN(C(C)C)CC3)nc(C3CCCCC3)nc2cc1OCCCN1CCCC1 [UNC0638] | reduced binding to the matrix | -2.05 | -1.787
COc1cc2c(N(C)C3CCN(C(C)C)CC3)nc(C3CCCCC3)nc2cc1OCCCN1CCCC1 [UNC0737] | – | 0.1524 | -0.1868
